According to patent US7368430B2, “Selective inhibitors of nuclear factor-κB activation and uses thereof” (Research Development Foundation, priority 2003, dated 2008):
Where a SMILES comes first, the peptide text is derived from it.

How the values were obtained:
[1] = target: T1, NF-κB (p50-p65) binding to DNA (Homo sapiens, UniProt Q04206); test: EMSA of NF-κB binding to DNA, nuclear extracts of TNF-treated cells incubated with peptides in vitro; assay type: biochemical; details: nuclear extracts of TNF-treated KBM-5 cells incubated 30 min with peptides (FIG. 2A)
T1 construct: endogenous in cells; host or cells: KBM-5 cells, TNF-treated, nuclear extract
Description: Nuclear extracts were prepared from TNF-treated cells, incubated for 30 min with various concentrations of peptides, and then assayed for NF-κB activation by EMSA.
NF-κB activation was examined by electrophoretic mobility shift assays as described (Chaturvedi et al., 1994; Takada and Aggarwal). Briefly, nuclear extracts prepared from TNF-treated cells (1×10^6/ml) were incubated with ^32P-end-labeled 45-mer double-stranded NF-κB oligonucleotide (10 ug of protein with 16 fmol of DNA) from the human immunodeficiency virus long terminal repeat, 5′-[…] CAGGGAGGCGTGG-3′ (SEQ ID NO. 1, boldface indicates NF-κB binding sites) for 30 min at 37° C., and the DNA-protein complex formed was separated from free oligonucleotide on 6.6% native polyacrylamide gels. A double-stranded mutated oligonucleotide, 5′-[…]-3′(SEQ ID NO. 2) was used to examine the specificity of binding of NF-κB to the DNA. The specificity of binding was also examined by competition with unlabeled oligonucleotide.
The dose-dependent effect of protein transduction domain-p65-P1 and p65-P1 on p50-p65 binding to DNA was investigated. […] The protein transduction domain alone had no effect.

NF-κB = test: EMSA of NF-κB activation in KBM-5 cells preincubated with peptides; assay type: cell-based; details: various concentrations of peptides 1 h, 0.1 nM TNF 30 min (FIG. 3C)
Description: NF-κB activation was examined by electrophoretic mobility shift assays as described (Chaturvedi et al., 1994; Takada and Aggarwal). Briefly, nuclear extracts prepared from TNF-treated cells (1×10^6/ml) were incubated with ^32P-end-labeled 45-mer double-stranded NF-κB oligonucleotide (10 ug of protein with 16 fmol of DNA) from the human immunodeficiency virus long terminal repeat, 5′-[…] CAGGGAGGCGTGG-3′ (SEQ ID NO. 1, boldface indicates NF-κB binding sites) for 30 min at 37° C., and the DNA-protein complex formed was separated from free oligonucleotide on 6.6% native polyacrylamide gels. […]
To determine the effects of peptide containing Ser 276 (PTD-p65-P1), KBM-5 cells was preincubated with the peptides for 1 h, and then treated with 0.1 nM TNF for the indicated times. Nuclear extracts were prepared, and NF-κB activation was analyzed by electrophoretic mobility shift assays (EMSA). […]
Lipopolysaccharide, IL-1, okadaic acid, PMA, H2O2, and cigarette smoke condensate are potent activators of NF-κB, but the mechanisms differ. […] Cells were preincubated with 150 μM protein transduction domain-p65-P1 for 1 h, treated with 0.1 nM TNF, 1 μg/ml LPS, 100 ng/ml IL-1, 500 nM okadaic acid, 10 ng/ml PMA, 500 μM H2O2, or 1 μg/ml cigarette smoke condensate and then analyzed for NF-κB activation by EMSA.

KBM-5 cells = test: Cytotoxicity assay (MTT assay); assay type: cell-based; details: 100 μM peptide; for effect on TNF-induced cytotoxicity (MTT): KBM-5 cells, TNF 72 h (FIG. 7A)
Description: Five thousand KBM-5 cells were seeded in triplicate in 96-well plates. Cells were pretreated with 100 μM PTD-p65-P1, and then incubated with the indicated concentrations of TNF for 72 hour. Thereafter, cell viability was analyzed by MTT assay.
Five thousand cells were seeded in triplicate in 96-well plates. Cells were pretreated with 100 μM protein transduction domain-p65-P1 and then incubated with indicated concentrations of TNF or doxorubicin or cisplatin for 72 hr. Thereafter, cell viability was analyzed by the MTT method.
The cytotoxic effects of […] were determined by the MTT uptake method as described (Manna et al., 2000a). Briefly, 5000 cells were incubated with synthetic peptides for 1 hour in triplicate in 96-well plates, and then treated with various concentration of TNF for 72 hours at 37° C. Thereafter, MTT solution was added to each well. After a 2-hr incubation at 37° C., extraction buffer (20% SDS, 50% dimethylformamide) was added, the cells were incubated overnight at 37° C., and then the OD was measured at 570 nm using a 96-well multiscanner (Dynex Technologies, MRX Revelation; Chantilly, Va.).

IKK complex = target: T2, IKK complex (Homo sapiens, UniProt O14920+O15111); test: Cell-free phosphorylation of p65 peptides by immunoprecipitated IKK complex; assay type: biochemical; details: 10 μg of peptides as substrate (FIG. 5C)
T2 construct: Whole-cell extracts were prepared from TNF-treated cells and immunoprecipitated with antibody against IKK-α; endogenous in cells
Description: Whole-cell extracts were prepared from TNF-treated cells and immunoprecipitated with antibody against IKK-α. Thereafter immunocomplex kinase assay was performed in the presence of the peptides as a substrate.
To determine the total amounts of IKK-α and IKK-β in each sample, […] of the whole-cell protein was resolved on 7.5% SDS-PAGE, electrotransferred to a nitrocellulose membrane, and then blotted with either anti-IKK-α or anti-IKK-β antibodies. Cell-free phosphorylation of peptide by IKK was also determined using 10 μg of peptides as a substrate in the kinase reaction mixture described above, and then fractionated on 20% SDS-PAGE in 2×SDS electrophoresis buffer.
p65-P1 and p65-p6 have one or two serine residues respectively. Whether these serine residues can be phosphorylated by IKK was investigated. Whole-cell extracts from TNF-treated cells were immunoprecipitated with antibody against IKK and then immunocomplex kinase assay was performed using p65-peptides as substrates. After reaction, samples were fractionated on 20% SDS-PAGE with 2-fold electrophoresis buffer.

T1 sequence (Q04206 whole entry): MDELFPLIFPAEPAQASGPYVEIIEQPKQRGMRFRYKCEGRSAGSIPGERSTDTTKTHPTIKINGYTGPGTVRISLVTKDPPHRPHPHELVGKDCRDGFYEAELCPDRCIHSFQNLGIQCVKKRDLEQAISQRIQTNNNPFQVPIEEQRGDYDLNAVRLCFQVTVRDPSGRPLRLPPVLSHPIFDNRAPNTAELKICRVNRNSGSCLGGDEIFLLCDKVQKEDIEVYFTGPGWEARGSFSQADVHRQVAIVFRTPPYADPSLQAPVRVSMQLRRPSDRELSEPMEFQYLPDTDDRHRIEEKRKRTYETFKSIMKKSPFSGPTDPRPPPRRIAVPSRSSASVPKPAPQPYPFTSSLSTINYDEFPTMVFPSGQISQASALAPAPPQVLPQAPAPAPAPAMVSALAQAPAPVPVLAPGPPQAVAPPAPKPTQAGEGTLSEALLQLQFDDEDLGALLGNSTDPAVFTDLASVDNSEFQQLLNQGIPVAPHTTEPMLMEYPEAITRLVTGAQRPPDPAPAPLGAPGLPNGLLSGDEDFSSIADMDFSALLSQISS
T2 sequence (O15111 whole entry): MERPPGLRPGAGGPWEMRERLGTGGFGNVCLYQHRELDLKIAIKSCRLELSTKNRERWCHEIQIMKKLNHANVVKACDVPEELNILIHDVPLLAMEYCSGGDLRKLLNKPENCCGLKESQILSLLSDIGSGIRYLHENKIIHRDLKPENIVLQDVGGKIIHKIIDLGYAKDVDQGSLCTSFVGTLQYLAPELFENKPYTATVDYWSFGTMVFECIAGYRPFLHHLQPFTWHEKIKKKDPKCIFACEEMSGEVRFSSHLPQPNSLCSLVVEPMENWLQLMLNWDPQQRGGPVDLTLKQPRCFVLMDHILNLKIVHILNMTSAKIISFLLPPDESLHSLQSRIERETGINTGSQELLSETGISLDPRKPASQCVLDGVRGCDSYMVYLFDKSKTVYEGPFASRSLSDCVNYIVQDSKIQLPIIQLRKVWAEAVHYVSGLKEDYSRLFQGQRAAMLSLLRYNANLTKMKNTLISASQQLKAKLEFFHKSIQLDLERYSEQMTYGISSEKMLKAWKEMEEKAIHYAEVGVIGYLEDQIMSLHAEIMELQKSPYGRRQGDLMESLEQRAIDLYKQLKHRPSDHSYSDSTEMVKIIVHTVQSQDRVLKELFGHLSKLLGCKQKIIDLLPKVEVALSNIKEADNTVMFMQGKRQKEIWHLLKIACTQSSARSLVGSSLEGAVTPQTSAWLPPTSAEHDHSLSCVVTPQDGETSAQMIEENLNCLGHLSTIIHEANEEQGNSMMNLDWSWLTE
T2 sequence (O14920 whole entry): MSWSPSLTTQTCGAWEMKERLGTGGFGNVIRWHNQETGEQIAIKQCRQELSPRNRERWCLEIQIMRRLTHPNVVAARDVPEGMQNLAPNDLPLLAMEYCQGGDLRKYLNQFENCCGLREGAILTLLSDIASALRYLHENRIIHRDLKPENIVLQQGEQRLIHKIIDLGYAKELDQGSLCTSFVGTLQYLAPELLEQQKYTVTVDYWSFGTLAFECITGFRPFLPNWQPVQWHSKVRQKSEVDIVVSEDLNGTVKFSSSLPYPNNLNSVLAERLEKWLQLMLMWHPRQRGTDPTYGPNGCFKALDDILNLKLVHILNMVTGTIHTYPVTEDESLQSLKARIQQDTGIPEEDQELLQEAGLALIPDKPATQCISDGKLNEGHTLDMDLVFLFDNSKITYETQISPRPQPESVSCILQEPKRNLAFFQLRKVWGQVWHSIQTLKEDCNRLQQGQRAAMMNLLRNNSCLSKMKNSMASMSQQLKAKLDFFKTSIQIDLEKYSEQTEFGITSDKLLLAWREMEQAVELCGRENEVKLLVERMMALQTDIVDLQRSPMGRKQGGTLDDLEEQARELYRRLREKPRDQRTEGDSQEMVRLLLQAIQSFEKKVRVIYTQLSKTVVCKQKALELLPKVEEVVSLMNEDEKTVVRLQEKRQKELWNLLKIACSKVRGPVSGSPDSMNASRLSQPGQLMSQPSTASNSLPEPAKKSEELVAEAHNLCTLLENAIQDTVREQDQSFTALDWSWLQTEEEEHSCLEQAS
T2 sequence (Q9Y6K9 whole entry partner): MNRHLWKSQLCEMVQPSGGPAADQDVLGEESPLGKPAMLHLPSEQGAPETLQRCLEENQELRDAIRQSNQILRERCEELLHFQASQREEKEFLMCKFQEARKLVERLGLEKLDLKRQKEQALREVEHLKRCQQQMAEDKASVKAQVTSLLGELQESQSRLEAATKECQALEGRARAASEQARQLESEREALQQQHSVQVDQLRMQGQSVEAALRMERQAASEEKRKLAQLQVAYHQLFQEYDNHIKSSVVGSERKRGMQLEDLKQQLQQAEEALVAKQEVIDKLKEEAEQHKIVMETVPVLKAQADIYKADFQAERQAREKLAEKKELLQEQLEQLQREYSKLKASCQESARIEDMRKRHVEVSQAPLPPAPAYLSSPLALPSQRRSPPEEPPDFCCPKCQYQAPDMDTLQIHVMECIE

| Molecule | inhibition of NF-κB binding to the DNA in vitro [1] | effect on TNF-induced cytotoxicity (MTT) (KBM-5 cells) | further results |
| --- | --- | --- | --- |
| p65-P4: Peptide in which five amino acid residues were deleted from the C-terminus (QLRRPSD; CHAIN p65-P4, mutated peptide derived from the p65 subunit of NF-kB) | inactive |  |  |
| p65-P7: Peptide in which Ser 529 was mutated (NGLLAGDEDFSS; CHAIN p65-P7, mutated peptide derived from the p65 subunit of NF-kB) | did not inhibit |  |  |
| p65-p8: Peptide in which Ser 536 was mutated (NGLLSGDEDFSA; CHAIN p65-P8, mutated peptide derived from the p65 subunit of NF-kB) | did not inhibit |  |  |
| PTD-p65-P6: SEQ ID NO. 10; antennapedia protein transduction domain linked to amino acid 525-537 of the p65 subunit (DRQIKIWFQNNRRMKWKKNGLLSGDEDFSS; CHAIN PTD-p65-P6, cell permeable NF-kb inhibitor) |  |  | effect on TNF-induced NF-κB activation (EMSA, dose response) (NF-κB): inhibited TNF-induced NF-κB activation in a dose dependent manner |
| CC(C)C[C@H](NC(=O)[C@H](CCC(=O)O)NC(=O)[C@H](CCCNC(=N)N)NC(=O)[C@H](CC(=O)O)NC(=O)[C@H](CO)NC(=O)[C@@H]1CCCN1C(=O)[C@H](CCCNC(=N)N)NC(=O)[C@H](CCCNC(=N)N)NC(=O)[C@H](CC(C)C)NC(=O)[C@@H](N)CCC(N)=O)C(=O)N[C@@H](CO)C(=O)N[C@@H](CCC(=O)O)C(=O)O [p65-P1, QLRRPSDRELSE] (H-QLRRPSDRELSE-OH) |  | had no effect |  |
| p65-P6: SEQ ID NO. 11; p65 peptide containing Ser 529 and 536, amino acid 525-537 of the p65 subunit (NGLLSGDEDFSS; CHAIN p65-P6, peptide derived from the p65 subunit of NF-kB) |  |  | effect on TNF-induced NF-κB activation (EMSA, dose response) (NF-κB): Neither a protein transduction domain nor p65-P6 alone had any effect; phosphorylation of the peptide by IKK complex (IKK complex): can phosphorylate |
| p65-P5: Peptide in which three amino acid residues were deleted from the N-terminus (RPSDRELSE; CHAIN p65-P5, mutated peptide derived from the p65 subunit of NF-kB) | inactive |  |  |
| CC[C@H](C)[C@H](NC(=O)[C@H](CCCCN)NC(=O)[C@@H](NC(=O)[C@H](CCC(N)=O)NC(=O)[C@H](CCCNC(=N)N)NC(=O)[C@@H](N)CC(=O)O)[C@@H](C)CC)C(=O)N[C@@H](Cc1c[nH]c2ccccc12)C(=O)N[C@@H](Cc1ccccc1)C(=O)N[C@@H](CCC(N)=O)C(=O)N[C@@H](CC(N)=O)C(=O)N[C@@H](CC(N)=O)C(=O)N[C@@H](CCCNC(=N)N)C(=O)N[C@@H](CCCNC(=N)N)C(=O)N[C@@H](CCSC)C(=O)N[C@@H](CCCCN)C(=O)N[C@@H](Cc1c[nH]c2ccccc12)C(=O)N[C@@H](CCCCN)C(=O)N[C@@H](CCCCN)C(=O)O [protein transduction domain, reference compound] (H-DRQIKIWFQNNRRMKWKK-OH) |  | had no effect |  |
| p65-P2: Peptide in which Ser 276 was mutated (QLRRPADRELSE; CHAIN p65-P2, mutated peptide derived from the p65 subunit of NF-kB) | did not inhibit |  |  |
| CC[C@H](C)[C@H](NC(=O)[C@H](CCCCN)NC(=O)[C@@H](NC(=O)[C@H](CCC(N)=O)NC(=O)[C@H](CCCNC(=N)N)NC(=O)[C@@H](N)CC(=O)O)[C@@H](C)CC)C(=O)N[C@@H](Cc1c[nH]c2ccccc12)C(=O)N[C@@H](Cc1ccccc1)C(=O)N[C@@H](CCC(N)=O)C(=O)N[C@@H](CC(N)=O)C(=O)N[C@@H](CC(N)=O)C(=O)N[C@@H](CCCNC(=N)N)C(=O)N[C@@H](CCCNC(=N)N)C(=O)N[C@@H](CCSC)C(=O)N[C@@H](CCCCN)C(=O)N[C@@H](Cc1c[nH]c2ccccc12)C(=O)N[C@@H](CCCCN)C(=O)N[C@@H](CCCCN)C(=O)N[C@@H](CCC(N)=O)C(=O)N[C@@H](CC(C)C)C(=O)N[C@@H](CCCNC(=N)N)C(=O)N[C@@H](CCCNC(=N)N)C(=O)N1CCC[C@H]1C(=O)N[C@@H](CO)C(=O)N[C@@H](CC(=O)O)C(=O)N[C@@H](CCCNC(=N)N)C(=O)N[C@@H](CCC(=O)O)C(=O)N[C@@H](CC(C)C)C(=O)N[C@@H](CO)C(=O)N[C@@H](CCC(=O)O)C(=O)O [PTD-p65-P1] (H-DRQIKIWFQNNRRMKWKKQLRRPSDRELSE-OH) |  | enhanced TNF-induced cytotoxicity | effect on cisplatin-induced cytotoxicity (MTT) (KBM-5 cells; cisplatin 72 hr (FIG. 7D bottom panel)): potentiated; effect on doxorubicin-induced cytotoxicity (MTT) (KBM-5 cells; doxorubicin 72 hr (FIG. 7D top panel)): potentiated |
